{
  "source": "patent US8507445B2",
  "about": "“Compositions and methods of use of targeting peptides for diagnosis and therapy of human cancer” (Board of Regents, The University of Texas System, priority 2002, dated 2013)",
  "key": {"[1]": {"system": "DU145 xenografts", "assay": "Phage localization by anti-phage staining of tissues", "format": "in vivo, nude mice", "settings": "24 hour circulation", "experimental": "To determine the specificity of the prostate tumor targeting peptides, 10^9 phage carrying the targeting peptide sequences […] (SEQ ID NO:83) and […] (SEQ ID NO:84) were injected into nude mice bearing DU145 xenografts. After 24 hour circulation, tissue samples were obtained from tumor and control organs (kidney, brain, lung and spleen). Tissue samples were washed immediately in DMAM and fixed in 10% formalin for 48 hours at room temperature. Thin sections were stained for phage using anti-phage antibody (1:500 dilution) and detected using the DAKO LSAB+ system. […] This may be due to the tendency of spleen tissue to trap phage and other foreign particles in general as part of the reticuloendothelial system."}, "[2]": {"system": "MDA-MB-435 breast carcinoma", "assay": "Phage localization, separate study", "settings": "in vivo"}, "[3]": {"system": "DU145 tumors", "assay": "Competition of phage tumor localization by synthetic peptide", "format": "in vivo, nude mice", "settings": "300 μg synthetic peptide co-injected with phage", "experimental": "Competition studies with the […] (SEQ ID NO:83) peptide were performed to determine whether it could inhibit localization of phage bearing the same targeting sequence to DU145 tumors. Nude mice bearing the prostate tumor xenograft were simultaneously injected with 300 μg of synthetic […] (SEQ ID NO:83) peptide and 10^9 phage bearing the same targeting peptide sequence. A control tumor-bearing mouse was co-injected with fd insertless phage plus synthetic peptide. After 24 hours of circulation, tumor tissue samples were removed, washed, fixed, sectioned and stained as disclosed above. Co-administration of synthetic peptide with the same targeting sequence inhibited the ability of […] (SEQ ID NO:83)-phage to localize to prostate carcinoma tissue (not shown). No staining of prostate carcinoma with control fd-tet phage was observed (not shown)"}, "[4]": {"target": "T1, HSP90α (Homo sapiens, UniProt P07900)", "T1 construct": "from tissue; host or cells: homogenate pellet of DU145 xenograft tumor grown in nude mice", "assay": "Receptor purification on biotinylated peptide beads", "format": "binding", "settings": "MALDI analysis of excised bands", "experimental": "The prostate homing receptor for the B2 clone ([…] SEQ ID NO:83) was identified. Nude mice bearing DU145 xenografts were prepared and tissue samples from tumor, kidney and liver were removed. The tissue samples were immediately washed with PBS and three parts of homogenization buffer (PBS, 250 mM sucrose, 1 mM EDTA, protease inhibitors) was added to one part of tissue sample (about 4 ml). The tissue with homogenized with an electric grinder, then further homogenized with a dounce homogenizer. After sonication for 1 min on ice, the homogenate was centrifuged at 8000×g for 5 min. The supernatant was removed and the pellet was analyzed for receptor content.\nThe […] (SEQ ID NO:83) peptide was biotinylated and coupled to NeutrAvidin beads (Molecular Probes, Eugene, Oreg.) using standard methods. About 500 μg of biotinylated peptide was incubated with 1 ml of NeutrAvidin beads in binding buffer (0.5 M NaCl in PBS) overnight at 4° C. in a 2 ml column. The column was agitated using a rotator. Uncoupled peptides were removed and the beads washed three times with binding buffer and protease inhibitors. […]\nThe beads were washed four times with wash buffer (0.1% Triton X-100 in PBS with protease inhibitors) and the bound material eluted with 8 M guanidine HCl. Eluted proteins were analyzed on a 4-20% SDS-PAGE denaturing gel. […]"}, "[5]": {"system": "IgGs isolated from the ascites of ovarian cancer patients", "assay": "Biopanning of CX7C phage library on IgGs from ovarian cancer ascites", "format": "binding, human", "experimental": "To identify peptide epitopes specific for the anti-tumor immune response in ovarian cancer, a two-step screening procedure was followed (FIG. 34). The peptide library was initially pre-cleared on IVIg (intravenous immunoglobulins) to remove non-specific peptides. The pre-cleared peptide phage library was then incubated with IgGs isolated from the ascites of ovarian cancer patients. Phage bound to the ovarian cancer IgGs were recovered, amplified, and precipitated for subsequent rounds of biopanning. Following enrichment of a phage population that bound to ovarian cancer patient IgGs, individual phage clones were picked for sequence analysis to evaluate enrichment of the most consistently binding peptide sequences. Phage display biopanning was performed as described above.\nOnce the selection rounds were completed as determined by enrichment of phage capable of binding cancer patient IgGs over control at least 3 fold, sequencing and evaluation of the DNA phage insert were undertaken. To sequence the FUSE5 ssDNA directly, phage ssDNA was prepared using the StrataClean™ resin (Stratagene). StrataClean bead slurry was placed in a microcentrifuge tube containing phage. The mixture was vortexed strongly for 30 seconds and then incubated at room temperature for one minute. The tubes were centrifuged at 2,000×g for 1 minute. […]"}, "[6]": {"system": "antibodies isolated from the ascites of an ovarian cancer patient", "assay": "Competition of ascites antibody binding to immobilized GST fusion protein", "design": "species or system human", "experimental": "Inhibition studies were performed in a similar manner as the binding assays described above with the exception that either GST fusion protein or synthetic peptide corresponding to the phage clone were added to the experiment. Where the peptide is mediating the interaction with the immunoglobulins then an inhibition of phage binding should be observed in a dose dependent manner versus the synthetic peptide. GST alone and a control peptide containing unrelated amino acids were tested at identical concentrations.\nPeptide sequences of interest were expressed as GST fusion proteins (described above) and used to screen banked ascites and serum to determine the role of the humoral response against these markers. The purified GST-fusion proteins were used to coat a 96-well plate at 100 ng/well at room temperature (RT) or at 4° C. overnight. Following coating, the wells were emptied, rinsed, and non-specific sites were blocked with 200 μl 3% BSA/PBS at RT for 1-2 hours. Cancer patient ascites and/or sera were applied to each coated and blocked well at 1:100 dilution and then incubated at RT for 1 hour. […] Signals were detected in the presence of p-nitrophenyl phosphate by measuring OD405 at specific intervals to follow the course of color development. […]"}},
  "data": [
    {"sequence": "YRCTLNSPFFWEDMTHECHA [listing 1 of 2 here]", "values": [
      {"measurement": "anti-phage staining of control kidney, brain or lung", "setting": "[1]", "value": "No staining was observed"},
      {"measurement": "anti-phage staining of normal spleen", "setting": "[1]", "value": "low level of anti-phage staining"},
      {"measurement": "anti-phage staining of tumor", "setting": "[1]", "value": "very heavy staining"},
      {"measurement": "phage localization", "setting": "[2]", "value": "no apparent localization"}
    ]},
    {"sequence": "YRCTLNSPFFWEDMTHECHA [listing 2 of 2 here]", "values": [
      {"measurement": "inhibition of phage localization to prostate carcinoma", "setting": "[3]", "value": "inhibited"},
      {"measurement": "receptor identified", "setting": "[4]", "value": "HSP90α"}
    ]},
    {"sequence": "CVPELGHEC", "values": [
      {"measurement": "share of the phage clones sequenced", "setting": "[5]", "value": 86, "unit": "%"},
      {"measurement": "inhibition of antibody binding to immobilized GST-CVPELGHEC", "setting": "[6]", "value": "competitively inhibited in a dose-dependent fashion"}
    ]}
  ]
}
